Legend:
[1] = HPLC assay for profiling solution reactivity and stability of purine adduct fragments; assay type: physicochemical; settings: for preference between nucleophiles: butanethiol versus p-cresol
Description: HPLC assay for profiling solution reactivity and stability of purine adduct fragments: The following reagents were prepared and stored on ice prior to use. 0.1 M solution of caffeine in acetonitrile, 1.0 M solution of amino acid mimetic (butanethiol, n-butylamine, p-cresol, propionamide and butyric acid), tetramethylguanidine (TMG), 1 M HOAc in ACN and 10 mM solution of purine fragment (e.g., one of the purine adducts shown in Scheme 8, above) in ACN mixture. 500 μL of fragment solution (i.e. purified Pa-1 through Pa-6) were transferred to a dram vial on ice. To the mixture, 5.5 μL of TMG and 5.5 μL of respective amino acid mimetic were added and solutions were stirred on ice for 6 h. To monitor reactivity, 50 μL aliquots were removed at indicated time points and quenched with 10 μL of a 1:1 mixture of caffeine and HOAc. Samples were injected (1 μL) and analyzed by reverse-phase HPLC on a Shimadzu 1100 Series spectrometer with UV detection at 254 nm. Reaction progress was evaluated by monitoring consumption of starting material (purine fragment) normalized to caffeine standard. Chromatographic separation was performed using a Phenomenex Kinetex C18 column (2.6 μm, 50×4.6 mm). Mobile phases A and B were composed of H2O+0.1% HOAc and ACN+0.1% HOAc, respectively. […] All purine fragment peak AUCs used for calculations were normalized to caffeine standard AUCs at respective time points to account for run-to-run variations by HPLC. The amount of purine fragment consumed (% starting material) was plotted as a function of time.

[2] = target: T1, human eEF-Sec (Uniprot ID P57772) (Homo sapiens, UniProt P57772); test: Competition assay: purine ligands block AHL-Pu-1 probe labeling of eEF-Sec; assay type: cell-based; settings: for inhibition of eEF-Sec probe labeling: 10 μM ligand; for block of AHL-Pu-1 probe labeling of eEF-Sec: ligand 10 μM, AHL-Pu-1 25 μM; for block of AHL-Pu-1 probe labeling of eEF-Sec / block of AHL-Pu-1 probe labeling of eEF-Sec (FIG. 10E) / block of AHL-Pu-1 probe labeling of eEF-Sec (FIG. 10D): live cells; for block of AHL-Pu-1 probe labeling of eEF-Sec (FIG. 10E) / block of AHL-Pu-1 probe labeling of eEF-Sec (FIG. 10D): ligand 4 hr, AHL-Pu-1 25 μM 1 hr; for block of AHL-Pu-1 probe labeling of eEF-Sec (FIG. 10E): 0.05 to 25 μM; for block of AHL-Pu-1 probe labeling of eEF-Sec (FIG. 10D): 0.5 to 25 μM
T1 construct: FLAG; expressed in transfected cells; host or cells: HEK293T
T1 sequence (P57772 1-596): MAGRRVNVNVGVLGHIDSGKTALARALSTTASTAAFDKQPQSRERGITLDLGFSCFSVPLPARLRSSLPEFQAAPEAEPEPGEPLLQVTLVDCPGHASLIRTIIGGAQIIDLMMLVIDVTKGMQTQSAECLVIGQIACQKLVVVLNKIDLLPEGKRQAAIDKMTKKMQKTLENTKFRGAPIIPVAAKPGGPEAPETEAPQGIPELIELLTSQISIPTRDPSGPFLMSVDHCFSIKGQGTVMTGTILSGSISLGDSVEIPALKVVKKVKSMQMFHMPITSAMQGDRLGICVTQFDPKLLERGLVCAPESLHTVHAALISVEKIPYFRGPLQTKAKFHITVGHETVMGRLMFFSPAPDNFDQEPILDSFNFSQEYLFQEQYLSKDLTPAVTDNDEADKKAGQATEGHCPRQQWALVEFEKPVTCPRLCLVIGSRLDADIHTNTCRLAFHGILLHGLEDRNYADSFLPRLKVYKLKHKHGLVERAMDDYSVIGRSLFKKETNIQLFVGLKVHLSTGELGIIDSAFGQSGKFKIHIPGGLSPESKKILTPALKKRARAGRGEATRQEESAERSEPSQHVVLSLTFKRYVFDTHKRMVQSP
Description: FIG. 8 is a schematic diagram showing the workflow of a fluorescent gel-based competition assay using an activity-based probe (ABP) of the presently disclosed subject matter and a competitive inhibitor.
Methods: HEK293T cells were grown at 37° C. in 5% CO2 until 40% confluent. Recombinant human eEF-Sec (Uniprot ID P57772) was expressed by transient transfection for 48 hours. […] Lysates were spun at 100,000×g for 45 minutes. […] Purine probe modified proteins were conjugated to rhodamine-azide by CuAAC, subjected to SDS-PAGE analysis, and detected by in-gel fluorescence scanning. Comparison of non-transfected (Mock) and transfected proteomes was used to identify the recombinant eEF-Sec purine probe-labeled band. […] Reduction in fluorescent signals from purine probe labeling was indicative of Pi ligand inhibitory activity. Mut represents eEF-Sec mutant where cysteine residue 442 is mutated to alanine (C442A).

[3] = HPLC assay for profiling solution reactivity and stability of purine fragments (probes) with amino acid mimetics; assay type: physicochemical; settings: for effect of amine group at the 2 position on electrophilic character / adducts formed, based on HPLC traces / reaction kinetics compared to N9 counterparts: butanethiol; for reaction with butanethiol: cysteine mimetic, on ice 6 h; for effect of position of the halogen leaving group on reactivity: 6 position versus 2 position (Pu-3 versus Pu-5, Pu-4 versus Pu-6); for reaction kinetics compared to N9 counterparts: versus Pu-2, Pu-4, Pu-10
Description: HPLC assay for profiling solution reactivity and stability of purine fragments: The following reagents were prepared and stored on ice prior to use. 0.1 molar (M) solution of caffeine in acetonitrile, 1.0 M solution of amino acid mimetic (butanethiol—cysteine mimetic; n-butylamine—lysine mimetic; p-cresol—tyrosine mimetic; propionamide-asparagine/glutamine mimetic; butyric acid—aspartic/glutamic acid mimetic), tetramethylguanidine (TMG), 1 M acetic acid (HOAc) in acetonitrile (ACN) and 10 mM solution of purine fragment in ACN mixture. 500 μL of fragment solution were transferred to a dram vial on ice. To the mixture, 5.5 μL of TMG and 5.5 μL of respective amino acid mimetic were added and solutions were stirred on ice for 6 h. To monitor reactivity, 50 μL aliquots were removed at indicated time points and quenched with 10 μL of a 1:1 mixture of caffeine and HOAc. Samples were injected (1 μL) and analyzed by reverse-phase HPLC on a Shimadzu 1100 Series spectrometer (Shimadzu Corporation, Kyoto, Japan) with UV detection at 254 nm. Reaction progress was evaluated by monitoring consumption of starting material (purine fragment) normalized to caffeine standard. Chromatographic separation was performed using a Phenomenex Kinetex C18 column (2.6 μm, 50×4.6 mm; Phenomenex, Torrance, Calif., United States of America). Mobile phases A and B were composed of H2O+0.1% HOAc and ACN+0.1% HOAc, respectively. […] All purine fragment peak AUCs used for calculations were normalized to caffeine standard AUCs at respective time points to account for run-to-run variations by HPLC. The amount of purine fragment consumed (% starting material) was plotted as a function of time.
Discussion: An HPLC assay for determining the reactivity of the purine-based probes with mimetics of amino acid residues was performed. […] Reaction progress was monitored by monitoring the disappearance of starting material and appearance of product via HPLC.

[4] = system: DM93 cells lysates (soluble fractions); test: Lysate activity of purine probes, gel-based (in-gel fluorescence); assay type: biochemical; settings: for protein labeling activity in lysates: DM93 soluble fractions, 25 μM, 2 hrs, 37° C.; for labeling compared to AHL-Pu-5 and AHL-Pu-6 / reactivity of N7 versus N9 tautomers: lysates; for labeling compared to AHL-Pu-5 and AHL-Pu-6: 6-chloro versus 2-chloro
Description: Lysate Activity Method: DM93 cells were grown at 37° C. in 5% CO2 until 90% confluent. Once confluent, cells were scraped and washed 3× times with cold PBS and lysed in PBS+protease inhibitor. Lysates were spun at 100,000×g for 45 minutes. Soluble fractions were treated with 25 μM of halogenated purine probes (unless stated) for 2 hrs (unless stated) at 37° C. Purine probe modified proteins were conjugated to rhodamine-azide by CuAAC, subjected to SDS-PAGE analysis, and detected by in-gel fluorescence scanning. SDS-PAGE gels were stained with Coomassie brilliant blue to determine protein load.

DM93 cells = test: Live cell activity of purine probes, gel-based (CuAAC rhodamine-azide, in-gel fluorescence); settings: for labeling profile in live cells: DM93 cells, 25 μM, 4 hours; for probe labeling compared to Pu-5 and Pu-6 / reactivity of N7 versus N9 tautomers: live DM93 cells; for probe labeling compared to Pu-5 and Pu-6: 6-chloro versus 2-chloro
Description: Live Cell Activity Method: DM93 cells were grown at 37° C. in 5% CO2 until 90% confluent. Once confluent cells were washed with serum free media and treated with halogenated purine probes at a final concentration of 25 μM (unless stated) for 4 hours (unless stated). Cells were then scraped and washed 3× with cold PBS and lysed in PBS+protease inhibitor. Lysates were spun at 100,000×g for 45 minutes. Halogen probe-modified proteins in soluble fractions were visualized by conjugating rhodamine-azide using copper-catalyzed azide-alkyne cycloaddition (CuAAC; 1 hour, room temperature), subjected to SDS-PAGE, and detected by in-gel fluorescence scanning. SDS-PAGE gels were also stained with Coomassie brilliant blue to determine protein load. All samples were loaded with equivalent amounts of protein. Thus, changes in purine probe labeling is not due to loading of different proteome amounts.

Compound: C#CCn1cnc2c(SCCCC)nc(F)nc21 [Pa-6, 6-(butylthio)-2-fluoro-9-(prop-2-yn-1-yl)-9H-purine]
- preference between nucleophiles [1]: equivalent reactivity against butanethiol and p-cresol
- reactivity with nucleophiles ([1]; on ice 6 h): mild reactivity

Compound: O=[N+]([O-])c1ccc(Cn2cnc3nc(Cl)nc(Cl)c32)cc1 [Pi-5, 2,6-Dichloro-7-(4-nitrobenzyl)-7H-purine]
- inhibition of eEF-Sec probe labeling [2]: greater than 50%
- block of AHL-Pu-1 probe labeling of eEF-Sec [2]: block AHL-Pu-1 probe labeling (25 μM) in a time dependent and concentration dependent manner
- block of AHL-Pu-1 probe labeling of eEF-Sec (FIG. 10E) [2]: in a concentration dependent manner
- block of AHL-Pu-1 probe labeling of eEF-Sec (FIG. 10D) [2]: in a concentration dependent manner

Compound: C#CCn1cnc2c(Cl)nc(N)nc21 [Pu-8, 2-Amino-6-chloro-9-(prop-2-yn-1-yl)-9H-purine]
- effect of amine group at the 2 position on electrophilic character [3]: dramatically reduces the electrophilic character

Compound: O=[N+]([O-])c1ccc(Cn2cnc3c(Cl)nc(Cl)nc32)cc1 [Pi-6, 2,6-Dichloro-9-(4-nitrobenzyl)-9H-purine]
- inhibition of eEF-Sec probe labeling [2]: loses all apparent activity

Compound: C#CCn1cnc2c(Cl)nc(F)nc21 [Pu-10, 6-chloro-2-fluoro-9-(prop-2-yn-1-yl)-9H-purine]
- protein labeling activity in lysates [4]: highest protein labeling activity
- labeling profile in live cells (DM93 cells): robust labeling profiles
- adducts formed, based on HPLC traces [3]: likely form many different adducts
- reaction with butanethiol [3]: react with butanethiol

Compound: O=S(=O)(N1CCOCC1)n1cnc2c(Cl)nc(Cl)nc21 [Pi-8, 4-((2,6-Dichloro-9H-purin-9-yl)sulfonyl)morpholine]
- block of AHL-Pu-1 probe labeling of eEF-Sec [2]: block AHL-Pu-1 probe labeling (25 μM) in a time dependent and concentration dependent manner
- block of AHL-Pu-1 probe labeling of eEF-Sec (FIG. 10D) [2]: in a concentration dependent manner

Compound: C#CCn1cnc2c(Cl)ncnc21 [Pu-4, 6-Chloro-9-(prop-2-yn-1-yl)-9H-purine]
- labeling compared to AHL-Pu-5 and AHL-Pu-6 [4]: Increased labeling
- probe labeling compared to Pu-5 and Pu-6 (DM93 cells): Enhanced probe labeling
- effect of position of the halogen leaving group on reactivity [3]: the 6 position enhances reactivity

Compound: Clc1nc(Cl)c2c(ncn2Cc2ccccc2)n1 [Pi-1, 2,6-dichloro-7-benzyl-7H-purine]
- block of AHL-Pu-1 probe labeling of eEF-Sec (FIG. 10E) [2]: in a concentration dependent manner
- block of AHL-Pu-1 probe labeling of eEF-Sec (FIG. 10D) [2]: in a concentration dependent manner

Compound: C#CCn1cnc2nc(F)nc(Cl)c21 [Pu-9, 6-chloro-2-fluoro-7-(prop-2-yn-1-yl)-7H-purine]
- protein labeling activity in lysates [4]: highest protein labeling activity
- reactivity of N7 versus N9 tautomers [4]: more reactive
- labeling profile in live cells (DM93 cells): robust labeling profiles
- reactivity of N7 versus N9 tautomers (DM93 cells): more reactive
- adducts formed, based on HPLC traces [3]: likely form many different adducts
- reaction kinetics compared to N9 counterparts [3]: accelerated reaction kinetics
- reaction with butanethiol [3]: react with butanethiol

Compound: C#CCn1cnc2ncnc(Cl)c21 [Pu-3, 6-Chloro-7-(prop-2-yn-1-yl)-7H-purine]
- reactivity of N7 versus N9 tautomers [4]: more reactive
- labeling compared to AHL-Pu-5 and AHL-Pu-6 [4]: Increased labeling
- reactivity of N7 versus N9 tautomers (DM93 cells): more reactive
- probe labeling compared to Pu-5 and Pu-6 (DM93 cells): Enhanced probe labeling
- effect of position of the halogen leaving group on reactivity [3]: the 6 position enhances reactivity
- reaction kinetics compared to N9 counterparts [3]: accelerated reaction kinetics
- reaction with butanethiol [3]: react with butanethiol

Compound: C#CCn1cnc2c(Cl)nc(SCCCC)nc21 [Pa-3, 2-(butylthio)-6-chloro-9-(prop-2-yn-1-yl)-9H-purine]
- preference between nucleophiles [1]: preference for butanethiol
- reactivity with nucleophiles ([1]; on ice 6 h): mild reactivity

Compound: C#CCn1cnc2nc(N)nc(Cl)c21 [Pu-7, 6-chloro-2-amino-7-(prop-2-yn-1-yl)-7H-purine]
- effect of amine group at the 2 position on electrophilic character [3]: dramatically reduces the electrophilic character

Compound: C#CCn1cnc2nc(Cl)nc(SCCCC)c21 [Pa-1, 6-(Butylthio)-2-chloro-7-(prop-2-yn-1-yl)-7H-purine]
- reactivity with butanethiol or p-cresol ([1]; on ice 6 h): little reactivity

Compound: C#CCn1cnc2c(SCCCC)nc(Cl)nc21 [Pa-4, 6-(butylthio)-2-chloro-9-(prop-2-yn-1-yl)-9H-purine]
- reactivity against nucleophiles, N9 versus N7 tautomer ([1]; Pa-4 versus Pa-1, butanethiol): appears to be more reactive against nucleophiles
- reactivity of 2-halogen, 6-substituted versus 6-halogen, 2-substituted ([1]; Pa-4 versus Pa-3, butanethiol): higher reactivity
- reactivity with nucleophiles ([1]; on ice 6 h): mild reactivity

— patent US20220251085A1, “CYSTEINE BINDING COMPOSITIONS AND METHODS OF USE THEREOF” (University of Virginia Patent Foundation, priority 2019, published 2022)
